Test results reported in US20100298420A1, “Compositions and Methods for Intracellular Delivery” (Yissum, Research Development Company of the Hebrew …, priority 2001, published 2010).

Key:
Assay type in all cases: cell-based
[1] = test system: Swiss albino mouse fibroblast cells (3T3); test: CLSM experiment: intracellular delivery of fluorescent probes
Description: Subconfluent Swiss albino mouse fibroblast cells (3T3) were grown in Dulbeco's Modified Eagles Medium (DMEM) on coverslips in wells of 3.5 cm in diameter for Confocal Laser Scanning Microscopy (CLSM) and in six-well plastic plates for flow cytometric analysis. The cells were washed twice with phosphate buffered saline (PBS), adjusted to 37° C. in the incubator, and washed again. Two ml of PBS were added to each well and 50 μl of the test solution was added (Compositions I-III, control systems A-B or any compositions containing PC*, RR or D-289 listed above). […] The coverslip were observed under a Sarastro-Phibos1000 CLS microscope equipped with a 488 nm argon ion laser beam and attached to a Universal Zeiss epifluorescence microscopy with an oil immerse Planapo 63×1.4 NA objective lens. Fluorescence emission was detected above 560 nm for RR, at 527 nm for D-289 and […] for calcein.

[2] = test system: Bacillus Subtilis ATCC-6633; test: Susceptibility testing, zone of inhibition on agar; conditions: 37° C., 24 h
Description: (§1) Various concentrations of erythromycin in sterile water (1.25, 7.5, 10, 12.5 μg/ml) The bacterial strains used were:
(§2) Each erythromycin concentration was mixed with Composition I, Composition II and Standard solution with phosphate buffer saline (PBS, Biological Industries, Beit HaEmek Israel 1:1 by volume. 20 μl of Compositions I-II and standards containing various antibiotic concentrations was added to 6 mm wells on Petri plates containing Tryptic Soy Agar (TSA) inoculated with the microorganisms. The preparation was incubated aerobically at 37° C. for 24 h. The zone of inhibition for each sample was measured.

[3] = test system: Staphylococcus Aureus ATCC-29213; test: Susceptibility testing, zone of inhibition on agar; conditions: 37° C., 24 h, in mm
Description: as §1, §2

[4] = test system: Staphylococcus Aureus erythromycin resistant (clinical strain); test: Susceptibility testing, zone of inhibition on agar; conditions: 37° C., 24 h
Description: as §1, §2

[5] = Erythromycin conc. 10 microgram/ml

Row | Structure (SMILES) | Fluorescence in the nucleus of the cell [1] | zone of inhibition at 1.25 µg/mL ([2]; ATCC6633, Erythromycin conc. 1.25 microgram/ml) [mm] | zone of inhibition at 7.5 µg/mL ([2]; ATCC6633, Erythromycin conc. 7.5 microgram/ml) [mm] | Zone of inhibition ([3]; Erythromycin conc. 1.25 microgram/ml) | Zone of inhibition [3, 5] | zone of inhibition at 10 µg/mL [4, 5] [mm] | zone of inhibition at 12.5 µg/mL ([4]; Erythromycin conc. 12.5 microgram/ml) [mm]
1 | CCN(CC)c1ccc(C=Cc2cc[n+](C)cc2)cc1.[I-] [Composition D-289, 4-(4-diethylamino)styryl-N-methylpyridinium iodode] | fluorescence was also observed in the nucleus |  |  |  |  |  | 
2 | CC[C@H]1OC(=O)[C@H](C)[C@@H](O[C@H]2C[C@@](C)(OC)[C@@H](O)[C@H](C)O2)[C@H](C)[C@@H](O[C@@H]2O[C@H](C)C[C@H](N(C)C)[C@H]2O)[C@](C)(O)C[C@@H](C)C(=O)[C@H](C)[C@@H](O)[C@]1(C)O [Standard, Erythromycin] |  | 7.83 ± 0.26 | 13.6 ± 0.38 | 0 | 13.67 ± 026 | 0 | 7.67 ± 0.26
